Converted amounts (≈) assume the structure as drawn. Read-outs that look alike come from different tables or passages of the source.
Experiments:
OVCAR-8 = experiment: Human cancer cell growth inhibition assay (ATP assay), OVCAR-8; format: cell-based; details: Homo sapiens, OVCAR-8, 96 h; 4 days; Means±SEM from three independent experiments; read-out: OVCAR-8, IC50
[1] = tested on: Src protein activation in MDA-MB-231 cells; experiment: Cancer cell immunocytochemistry assay, Phospho-Src (Y416), MDA-MB-231; format: cell-based, human; details: YB-1 15 μM, capsaicin 50 μM, 1-6 h
Procedure: (§1) Human cancer cells (15,000 cells/well) in 96 well half area microplate (Cat #3882, Corning) were incubated overnight at 37° C., then compounds or DMSO control were added to the cell culture and incubated at 37° C. for 1-6 h. The cells were sequentially fixed with 4% formalin, permeabilized with 0.5% Triton X-100, blocked with 5% BSA in PBS, incubated with Human Phospho-Src (Y416) Antibody (Cat #MAB2685, R&D Systems) at rt for 2 h, incubated with the secondary antibody Goat Ant-Rabbit IgG H&L (Alexa Fluor 488) (Cat #ab150077, abeam) for 45 min, and incubated with DAPI (Cat #D9542, Sigma-Aldrich) for 5 min. Finally, the cells were washed and covered with PBS. The cell images were visualized on an inverted fluorescence microscope (Leica DMIL Fluorescent Inverted Microscope with Digital Camera, Leica Microsystems). Pictures were taken [FIGS. 14A-C. Green: Human Phospho-Src (Y416), the activated form of the Src protein; Blue: DAPI (stain nucleus of cell)]. The fluorescence intensity values from 5 random cells were averaged, subtracted by the background value (area between cells) and the blank value [the blank control without the Human Phospho-Src (Y416) Antibody], then plotted as percentage against the DMSO control to indicate the effects of compound treatment on the cellular Src kinase phosphorylation levels in the cancer cells (FIGS. 15A-D).

MDA-MB-231 cell invasion = experiment: Cancer cell invasion assay, MDA-MB-231; format: cell-based, human; details: 24 h
In short: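 Transwell inserts were coated with membrane matrix gel (0.5-0.6 mg/mL) and loaded with 1×10^5 human cancer cells in RPMI 1640, with 10% FBS medium below as attractant. Compound or DMSO went into both compartments for 24 h at 37 °C. Invaded cells were fixed, crystal-violet stained, counted in 5 random fields and expressed as % of DMSO control.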

Aqueous solubility = format: physicochemical
Procedure: Chemical analysis and solubility tests were performed blind to the identity of the samples. Intermediates and final analogs were analyzed by NMR (JEOL 400 MHz NMR) and HPLC/MS (Waters Acquity UPLC with SQD Mass Spec) to confirm structures and purity. Final compounds were purified to achieve >95% purity based on HPLC analysis.

[2] = Operant Pain Tolerance Assay; format: in vivo; details: intraplantar
Procedure: Model 3—The ability of YB-16 to increase pain tolerance was tested using a newly published Operant Pain Tolerance Assay (eNeuro 2020, 7, ENEURO.0210-19.2020). In the assay, mice were trained to seek a sucrose reward that was on a hot 42° C. plate (versus no reward on a neutral 30° C. plate). It was noticed that intraplantar YB-16 treated mice with paw inflammatory injury [induced by Complete Freund's adjuvant (CFA) 24 hrs prior to treatment] trended to spend 145% more time on the hot side of the assay but not necessarily additional time near the sucrose bottle compared to vehicle treated mice (FIG. 10B).

[3] = tested on: Src protein activation in NCI-H460 cells; experiment: Cancer cell immunocytochemistry assay, Phospho-Src (Y416), NCI-H460; format: cell-based, human; details: YB-1 15 μM, capsaicin 50 μM, 1-6 h
Procedure: as §1

[4] = tested on: Src protein activation in OVCAR-8 cells; experiment: Cancer cell immunocytochemistry assay, Phospho-Src (Y416), OVCAR-8; format: cell-based, human; details: YB-1 15 μM, capsaicin 50 μM, 1-6 h
Procedure: as §1

MDA-MB-231 = experiment: Human cancer cell growth inhibition assay (ATP assay), MDA-MB-231; format: cell-based; details: Homo sapiens, MDA-MB-231, 96 h; 4 days; Means±SEM from three independent experiments; read-out: MDA-MB-231, IC50
[5] = intraplantar; for reduction of first phase spontaneous behavior: 5-10 g dose
human TRPA1 = target: T1, human TRPA1 (Homo sapiens, UniProt O75762); experiment: In vitro Ca2+ flux counter-screen in human TRPA1 overexpressing cells; format: cell-based; details: counter-screen; read-out: TRPA1 EC50
T1 construct: expressed in transfected cells; host or cells: overexpressing cells
T1 sequence (O75762 whole entry): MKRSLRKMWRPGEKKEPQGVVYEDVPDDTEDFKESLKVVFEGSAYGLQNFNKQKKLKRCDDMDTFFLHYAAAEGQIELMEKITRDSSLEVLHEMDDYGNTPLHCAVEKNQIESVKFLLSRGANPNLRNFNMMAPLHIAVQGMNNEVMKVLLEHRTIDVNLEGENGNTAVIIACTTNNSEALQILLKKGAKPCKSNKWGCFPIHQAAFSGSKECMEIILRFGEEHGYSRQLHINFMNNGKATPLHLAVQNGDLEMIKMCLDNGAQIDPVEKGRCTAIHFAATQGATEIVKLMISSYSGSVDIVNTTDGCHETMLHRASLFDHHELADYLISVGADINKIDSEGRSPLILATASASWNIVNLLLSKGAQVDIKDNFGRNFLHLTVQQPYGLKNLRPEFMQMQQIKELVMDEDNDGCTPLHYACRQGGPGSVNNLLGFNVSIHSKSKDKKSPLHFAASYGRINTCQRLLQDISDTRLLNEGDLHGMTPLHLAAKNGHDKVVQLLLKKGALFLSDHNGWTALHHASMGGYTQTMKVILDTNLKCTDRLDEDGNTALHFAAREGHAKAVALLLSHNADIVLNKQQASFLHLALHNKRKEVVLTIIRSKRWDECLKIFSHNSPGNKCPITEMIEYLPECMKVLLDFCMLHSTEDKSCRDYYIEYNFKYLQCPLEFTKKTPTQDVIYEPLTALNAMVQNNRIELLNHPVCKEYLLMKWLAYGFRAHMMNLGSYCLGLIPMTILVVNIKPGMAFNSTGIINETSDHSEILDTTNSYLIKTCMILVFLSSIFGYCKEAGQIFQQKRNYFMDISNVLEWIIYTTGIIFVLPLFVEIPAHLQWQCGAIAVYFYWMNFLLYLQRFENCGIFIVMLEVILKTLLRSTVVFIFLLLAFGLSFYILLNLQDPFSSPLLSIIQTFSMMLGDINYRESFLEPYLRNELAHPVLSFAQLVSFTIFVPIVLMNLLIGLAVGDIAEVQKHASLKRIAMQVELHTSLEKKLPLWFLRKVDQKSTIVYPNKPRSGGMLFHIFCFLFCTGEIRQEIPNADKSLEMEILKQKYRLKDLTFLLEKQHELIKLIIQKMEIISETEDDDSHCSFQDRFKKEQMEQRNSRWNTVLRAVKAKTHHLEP

[6] = background; cited from earlier work
[7] = SubQ; YB-16 3, 6 mg/kg; capsaicin 2 mg/kg

SMILES: COc1cc(CNC(=O)CCCC/C=C/C(C)C)ccc1O [Capsaicin, trans-8-methyl-N-vanillyl-6-nonenamide, reference compound]
- IC50 (OVCAR-8): 234 ± 31 µM
- cellular Src kinase phosphorylation levels [1]: time-dependently reduced the cellular Src kinase phosphorylation levels
- inhibition of MDA-MB-231 cell invasion (MDA-MB-231 cell invasion): dose-dependently inhibited
- solubility (Aqueous solubility): 13 µg/mL (≈ 42.6 µM)
- sedation in operant pain tolerance assay [2]: inflammatory injury with sedation
- sensitivity to hot plate after inflammatory injury ([2]; paw inflammatory injury (CFA)): Weak trend for reduced sensitivity to
- cellular Src kinase phosphorylation levels [3]: time-dependently reduced the cellular Src kinase phosphorylation levels
- cellular Src kinase phosphorylation levels [4]: time-dependently reduced the cellular Src kinase phosphorylation levels
- IC50 (MDA-MB-231): 387 ± 120 µM
- maximum tolerated dose (MTD) [5]: 5 g
- reduction of first phase spontaneous behavior ([5]; 2 hr prior to formalin): 44% reduction in first phase pain
- reduction of first phase spontaneous behavior ([5]; 2 hr prior to formalin, listed as capsaicin): 44%
- animals with sedation ([5]; 10 g dosing group): 20%
- effect in the second phase of the formalin test ([5]; 2 hr prior to formalin): not statistically significant
- effect on formalin spontaneous pain-like behavior ([5]; 2 hr prior to formalin): reduce spontaneous pain-like behavior in a dose-related manner
- animal death and sedation in formalin test ([5]; listed as capsaicin): One of the capsaicin treated animals died
- EC50 (human TRPA1): > 10 µM
- solubility in water [6]: 13 µg/mL (≈ 42.6 µM)
- effect on hot-plate reaction [7]: reduced hotplate sensitivity compared to vehicle

Source: US20240116856A1 (Young BioPharma, LLC, priority 2020, published 2024)
